Key:
Type in all cases: in vivo
[1] = system: Italian ryegrass (Lolium multiflorum); assay: Test A preemergence, visual plant response rating; details: for Ryegrass, Italian plant response rating: 125 g ai/ha, preemergence, 0 to 100 scale, 0 no effect, 100 complete control; for Ryegrass, Italian plant response rating (0 to 100 scale): 500 g ai/ha Preemergence, approx. 10 days
Procedure, shortened: (§1)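 Compared with untreated controls, treated plants received a visual injury score on a 0–100 scale around 10 days after application. The compound, in a non-phytotoxic solvent with surfactant, was given as a preemergence soil spray or postemergence at the one- to two-leaf stage.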

[2] = system: pigweed (Amaranthus retroflexus); assay: Test A preemergence, visual plant response rating; details: for Pigweed plant response rating: 125 g ai/ha, preemergence, 0 to 100 scale, 0 no effect, 100 complete control; for Pigweed plant response rating (0 to 100 scale): 500 g ai/ha Preemergence, approx. 10 days
Procedure, shortened: as §1

[3] = system: foxtail, giant (giant foxtail, Setaria faberii); assay: Test A preemergence, visual plant response rating; details: for Foxtail, Giant plant response rating: 125 g ai/ha, preemergence, 0 to 100 scale, 0 no effect, 100 complete control; for Foxtail, Giant plant response rating (0 to 100 scale): 500 g ai/ha Preemergence, approx. 10 days
Procedure, shortened: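 Preemergence: seeds in loam/sand blend given directed soil spray of compound in non-phytotoxic solvent with surfactant. Postemergence: plants 2–10 cm, one- to two-leaf stage, sprayed with same formulation. Visual injury rated vs untreated controls after ~10 days in greenhouse, 0 (no effect) to 100 (complete control).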

[4] = system: ragweed (common ragweed, Ambrosia elatior); assay: Test A preemergence, visual plant response rating; details: for Ragweed plant response rating: 125 g ai/ha, preemergence, 0 to 100 scale, 0 no effect, 100 complete control; for Ragweed plant response rating (0 to 100 scale): 500 g ai/ha Preemergence, approx. 10 days
Procedure, shortened: as §1

[5] = system: kochia (Kochia scoparia); assay: Test A preemergence, visual plant response rating; details: for Kochia plant response rating: 125 g ai/ha, preemergence, 0 to 100 scale, 0 no effect, 100 complete control; for Kochia plant response rating (0 to 100 scale): 500 g ai/ha Preemergence, approx. 10 days
Procedure, shortened: as §1

[6] = system: barnyardgrass (Echinochloa crus-galli); assay: Test A preemergence, visual plant response rating; details: for Barnyardgrass plant response rating: 125 g ai/ha, preemergence, 0 to 100 scale, 0 no effect, 100 complete control; for Barnyardgrass plant response rating (0 to 100 scale): 500 g ai/ha Preemergence, approx. 10 days
Procedure, shortened: as §1

[7] = system: Italian ryegrass (Lolium multiflorum); assay: Test A postemergence, visual plant response rating; details: for Ryegrass, Italian plant response rating (0 to 100 scale): 500 g ai/ha, postemergence, 0 is no effect, 100 is complete control; for Ryegrass, Italian plant response rating: Postemergence, 125 g ai/ha, 0 to 100 scale (0 no effect, 100 complete control)
Procedure, shortened: as §1

[8] = system: pigweed (Amaranthus retroflexus); assay: Test A postemergence, visual plant response rating; details: for Pigweed plant response rating (0 to 100 scale): 500 g ai/ha, postemergence, 0 is no effect, 100 is complete control; for Pigweed plant response rating: Postemergence, 125 g ai/ha, 0 to 100 scale (0 no effect, 100 complete control)
Procedure, shortened: as §1

[9] = system: foxtail, giant (giant foxtail, Setaria faberii); assay: Test A postemergence, visual plant response rating; details: for Foxtail, Giant plant response rating (0 to 100 scale): 500 g ai/ha, postemergence, 0 is no effect, 100 is complete control; for Foxtail, Giant plant response rating: Postemergence, 125 g ai/ha, 0 to 100 scale (0 no effect, 100 complete control)
Procedure, shortened: as §1

[10] = system: ragweed (common ragweed, Ambrosia elatior); assay: Test A postemergence, visual plant response rating; details: for Ragweed plant response rating (0 to 100 scale): 500 g ai/ha, postemergence, 0 is no effect, 100 is complete control; for Ragweed plant response rating: Postemergence, 125 g ai/ha, 0 to 100 scale (0 no effect, 100 complete control)
Procedure, shortened: as §1

[11] = system: wheat (Triticum aestivum); assay: Test A postemergence, visual plant response rating; details: for Wheat plant response rating (0 to 100 scale): 500 g ai/ha, postemergence, 0 is no effect, 100 is complete control; for Wheat plant response rating: Postemergence, 125 g ai/ha, 0 to 100 scale (0 no effect, 100 complete control)
Procedure, shortened: as §1

[12] = system: kochia (Kochia scoparia); assay: Test A postemergence, visual plant response rating; details: for Kochia plant response rating (0 to 100 scale): 500 g ai/ha, postemergence, 0 is no effect, 100 is complete control; for Kochia plant response rating: Postemergence, 125 g ai/ha, 0 to 100 scale (0 no effect, 100 complete control)
Procedure, shortened: as §1

[13] = system: corn (Zea mays); assay: Test A postemergence, visual plant response rating; details: for Corn plant response rating (0 to 100 scale): 500 g ai/ha, postemergence, 0 is no effect, 100 is complete control; for Corn plant response rating: Postemergence, 125 g ai/ha, 0 to 100 scale (0 no effect, 100 complete control)
Procedure, shortened: as §1

[14] = system: galium (catchweed bedstraw, Galium aparine); assay: Test A postemergence, visual plant response rating; details: for Galium plant response rating (0 to 100 scale): 500 g ai/ha, postemergence, 0 is no effect, 100 is complete control; for Galium plant response rating: Postemergence, 125 g ai/ha, 0 to 100 scale (0 no effect, 100 complete control)
Procedure, shortened: as §1

[15] = system: barnyardgrass (Echinochloa crus-galli); assay: Test A postemergence, visual plant response rating; details: for Barnyardgrass plant response rating (0 to 100 scale): 500 g ai/ha, postemergence, 0 is no effect, 100 is complete control; for Barnyardgrass plant response rating: Postemergence, 125 g ai/ha, 0 to 100 scale (0 no effect, 100 complete control)
Procedure, shortened: as §1

[16] = system: blackgrass (Alopecurus myosuroides); assay: Test A postemergence, visual plant response rating; details: for Blackgrass plant response rating (0 to 100 scale): 500 g ai/ha, postemergence, 0 is no effect, 100 is complete control; for Blackgrass plant response rating: Postemergence, 125 g ai/ha, 0 to 100 scale (0 no effect, 100 complete control)
Procedure, shortened: as §1

[17] = system: sedge, umbrella (small-flower umbrella sedge, Cyperus difformis); assay: Test B flooded paddy test, visual plant response rating; details: 250 g ai/ha, Flood, applied to paddy water, 2-leaf stage, evaluated after 13 to 15 days
Procedure, shortened: (§2)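 Seedlings at 2 leaves; compound into paddy water (3 cm flood, maintained); 13–15 d greenhouse; visual score relative to controls.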

[18] = system: rice (Oryza sativa); assay: as above; details: 250 g ai/ha, Flood, applied to paddy water, 2-leaf stage, evaluated after 13 to 15 days
Procedure, shortened: as §2

[19] = system: barnyardgrass (Echinochloa crus-galli); assay: as above; details: 250 g ai/ha, Flood, applied to paddy water, 2-leaf stage, evaluated after 13 to 15 days
Procedure, shortened: as §2

[20] = system: ducksalad (Heteranhera limosa); assay: as above; details: 250 g ai/ha, Flood, applied to paddy water, 2-leaf stage, evaluated after 13 to 15 days
Procedure, shortened: as §2

| SMILES | Ryegrass, Italian plant response rating [1] | Ryegrass, Italian plant response rating (0 to 100 scale) [1] | Pigweed plant response rating [2] | Pigweed plant response rating (0 to 100 scale) [2] | Foxtail, Giant plant response rating [3] | Foxtail, Giant plant response rating (0 to 100 scale) [3] | Ragweed plant response rating [4] | Ragweed plant response rating (0 to 100 scale) [4] | Kochia plant response rating [5] | Kochia plant response rating (0 to 100 scale) [5] | Barnyardgrass plant response rating [6] | Barnyardgrass plant response rating (0 to 100 scale) [6] | Ryegrass, Italian plant response rating (0 to 100 scale) [7] | Ryegrass, Italian plant response rating [7] | Pigweed plant response rating (0 to 100 scale) [8] | Pigweed plant response rating [8] | Foxtail, Giant plant response rating (0 to 100 scale) [9] | Foxtail, Giant plant response rating [9] | Ragweed plant response rating (0 to 100 scale) [10] | Ragweed plant response rating [10] | also measured |
| --- | --- | --- | --- | --- | --- | --- | --- | --- | --- | --- | --- | --- | --- | --- | --- | --- | --- | --- | --- | --- | --- |
| CON=C(c1cccc(C(F)(F)F)c1)c1c(O)c(C)nn(C)c1=O [Compound 56] | 0 | 40 | 30 | 90 | 0 | 40 | 70 | 50 | 0 | 60 | 0 | 50 | 50 | 20 | 70 | 50 | 0 | 0 | 50 | 10 | Wheat plant response rating (0 to 100 scale) [11]: 0; Wheat plant response rating [11]: 0; Kochia plant response rating (0 to 100 scale) [12]: 50; Kochia plant response rating [12]: 20; Corn plant response rating (0 to 100 scale) [13]: 0; Corn plant response rating [13]: 0; Galium plant response rating (0 to 100 scale) [14]: 80; Galium plant response rating [14]: 70; Barnyardgrass plant response rating (0 to 100 scale) [15]: 10; Barnyardgrass plant response rating [15]: 0; Blackgrass plant response rating (0 to 100 scale) [16]: 40; Blackgrass plant response rating [16]: 30; Plant response rating, Sedge, Umbrella (0 to 100 scale, 0 is no effect, 100 is complete control) [17]: 15; Plant response rating, Rice (0 to 100 scale, 0 is no effect, 100 is complete control) [18]: 20; Plant response rating, Barnyardgrass (0 to 100 scale, 0 is no effect, 100 is complete control) [19]: 0; Plant response rating, Ducksalad (0 to 100 scale, 0 is no effect, 100 is complete control) [20]: 30 |
| CON=C(c1cccc(C#N)c1)c1c(O)c(C)nn(C)c1=O [Compound 57] | 0 | 0 | 0 | 0 | 0 | 30 | 0 | 0 | 0 | 10 | 0 | 0 | 20 | 10 | 30 | 30 | 0 | 0 | 10 | 0 | Wheat plant response rating (0 to 100 scale) [11]: 10; Wheat plant response rating [11]: 0; Kochia plant response rating (0 to 100 scale) [12]: 50; Kochia plant response rating [12]: 0; Corn plant response rating (0 to 100 scale) [13]: 0; Corn plant response rating [13]: 20; Galium plant response rating (0 to 100 scale) [14]: 50; Galium plant response rating [14]: 10; Barnyardgrass plant response rating (0 to 100 scale) [15]: 0; Barnyardgrass plant response rating [15]: 0; Blackgrass plant response rating (0 to 100 scale) [16]: 0; Blackgrass plant response rating [16]: 0; Plant response rating, Sedge, Umbrella (0 to 100 scale, 0 is no effect, 100 is complete control) [17]: 0; Plant response rating, Rice (0 to 100 scale, 0 is no effect, 100 is complete control) [18]: 15; Plant response rating, Barnyardgrass (0 to 100 scale, 0 is no effect, 100 is complete control) [19]: 15; Plant response rating, Ducksalad (0 to 100 scale, 0 is no effect, 100 is complete control) [20]: 0 |
| CON=C(c1c(O)c(C)nn(C)c1=O)c1cccc2sccc12 [Compound 58] | 70 | 100 | 10 | 50 | 60 | 100 | 60 | 80 | 30 | 60 | 10 | 60 | 90 | 80 | 90 | 70 | 80 | 40 | 100 | 50 | Wheat plant response rating (0 to 100 scale) [11]: 80; Wheat plant response rating [11]: 40; Kochia plant response rating (0 to 100 scale) [12]: 70; Kochia plant response rating [12]: 60; Corn plant response rating (0 to 100 scale) [13]: 0; Corn plant response rating [13]: 0; Galium plant response rating (0 to 100 scale) [14]: 90; Galium plant response rating [14]: 80; Barnyardgrass plant response rating (0 to 100 scale) [15]: 50; Barnyardgrass plant response rating [15]: 20; Blackgrass plant response rating (0 to 100 scale) [16]: 90; Blackgrass plant response rating [16]: 80; Plant response rating, Sedge, Umbrella (0 to 100 scale, 0 is no effect, 100 is complete control) [17]: 0; Plant response rating, Rice (0 to 100 scale, 0 is no effect, 100 is complete control) [18]: 0; Plant response rating, Barnyardgrass (0 to 100 scale, 0 is no effect, 100 is complete control) [19]: 0; Plant response rating, Ducksalad (0 to 100 scale, 0 is no effect, 100 is complete control) [20]: 0 |
| CON=C(c1c(O)c(C)nn(C)c1=O)c1cccc2sccc12 [Compound 59] | 30 | 90 | 0 | 70 | 30 | 70 | 30 | 100 | 10 | 60 | 0 | 30 | 100 | 80 | 90 | 80 | 60 | 40 | 80 | 60 | Wheat plant response rating (0 to 100 scale) [11]: 0; Wheat plant response rating [11]: 0; Kochia plant response rating (0 to 100 scale) [12]: 80; Kochia plant response rating [12]: 80; Corn plant response rating (0 to 100 scale) [13]: 20; Corn plant response rating [13]: 0; Galium plant response rating (0 to 100 scale) [14]: 90; Galium plant response rating [14]: 70; Barnyardgrass plant response rating (0 to 100 scale) [15]: 50; Barnyardgrass plant response rating [15]: 30; Blackgrass plant response rating (0 to 100 scale) [16]: 80; Blackgrass plant response rating [16]: 70; Plant response rating, Sedge, Umbrella (0 to 100 scale, 0 is no effect, 100 is complete control) [17]: 0; Plant response rating, Rice (0 to 100 scale, 0 is no effect, 100 is complete control) [18]: 0; Plant response rating, Barnyardgrass (0 to 100 scale, 0 is no effect, 100 is complete control) [19]: 0; Plant response rating, Ducksalad (0 to 100 scale, 0 is no effect, 100 is complete control) [20]: 0 |

— patent publication US20210045385A1, “PYRIDAZINONE-SUBSTITUTED KETOXIMES AS HERBICIDES” (FMC Corporation, priority 2018, published 2021)
